Data: publication PMC5838563, “Compounds producing an effective combinatorial regimen for disruption of HIV‐1 latency” (EMBO Molecular Medicine, 2017)

Assays:
[1] = system: IL‐2 production and CD69 in primary cells; set-up: method as in previous results (reference not given); conditions: 10 nM PEP005, primary cells; ref previous results (reference not given); cited from earlier work
[2] = system: HIV‐1 LTR (Jurkat^Tat LTR‐DsRed clone #11); assay: mdHIV LTR‐DsRed reporter assay, clone #11; type: cell-based
Source text: HIV‐1 tends to integrate into actively transcribed regions of the host genome (Jordan et al, 2003; Lewinski et al, 2006; Ikeda et al, 2007). Each HIV‐1‐infected patient carries viral DNA integrated at different chromosomal locations, and as we have previously shown, the site of viral integration influences how latently infected T cells respond to different stimuli (Hashemi et al, 2016). Therefore, an ideal LRA should be capable of disrupting latency in cell models carrying integrated viral reporters at multiple different regions within the host genome. To assess this capability for the PH compounds, we used two additional previously described cell lines, designated Jurkat^Tat LTR‐DsRed clones #11, and #131, that carry a mini‐dual fluorescent HIV‐1 LTR reporter (mdHIV) at different chromosomal locations. The minivirus mdHIV has two fluorescent reporters in which DsRed expression is driven from the 5′ LTR, and eGFP is constitutively expressed from an internal EIF‐1α promoter (Fig 5A). […]
(§1) Figure 5 Effect of PH02 on HIV provirus integrated at different chromosomal locations • A The effect of PH compounds was analyzed using clonal lines bearing single‐copy integrations of the mini‐dual fluorescent HIV‐1 LTR reporter, md‐HIV, where GFP is constitutively expressed from the EIF‐1α internal promoter, and DsRed from the 5′ LTR. • B Fluorescence‐activated cell sorting (FACS) of cells bearing md‐HIV provirus indicates expression of EIF‐1α‐GFP and LTR‐dsRed. Stimulation of the md‐HIV lines generally causes a shift of the fluorescence profile from GFP^+/DsRed^− toward GFP^+/DsRed^+. • C, D Clone 11 or clone 131 was treated with the indicated concentrations of PH02 (left panels) or PH02 in combination with 10 nM PEP005 (right panels) for 24 h and cells analyzed by flow cytometry. Results presented as Δmean fluorescence intensity (ΔMFI) of DsRed expression and fold increase in DsRed expression for solo and combination treatments, respectively. Mean and SE are determined from three biological replicates (n = 3) and technical duplicates. […]

[3] = system: HIV‐1 LTR (Jurkat^Tat LTR‐DsRed clone #131); assay: mdHIV LTR‐DsRed reporter assay, clone #131; type: cell-based
Source text: HIV‐1 tends to integrate into actively transcribed regions of the host genome (Jordan et al, 2003; Lewinski et al, 2006; Ikeda et al, 2007). Each HIV‐1‐infected patient carries viral DNA integrated at different chromosomal locations, and as we have previously shown, the site of viral integration influences how latently infected T cells respond to different stimuli (Hashemi et al, 2016). Therefore, an ideal LRA should be capable of disrupting latency in cell models carrying integrated viral reporters at multiple different regions within the host genome. […]
as §1, with “cytometry.” for “cytometry. Results presented as Δmean fluorescence intensity (ΔMFI) of DsRed expression and fold increase in DsRed expression for solo and combination treatments, respectively. Mean and SE are determined from three biological replicates (n = 3) and technical duplicates.”

[4] = PH02 alone, 24 h, serial dilutions 28–0.2 μM
[5] = in combination with 10 nM PEP005, 24 h

SMILES: C/C=C(/C)C(=O)O[C@H]1C(C)=C[C@]23C(=O)[C@@H](C=C(CO)[C@@H](O)[C@]12O)[C@H]1[C@@H](C[C@H]3C)C1(C)C [PEP005, ingenol‐3‐angelate, reference compound]
- CD69 [1]: does induce upregulation of CD69
- IL‐2 production [1]: does not cause

SMILES: CC(=O)Oc1ccccc1N(C=C1Sc2ccccc2C1=O)C(C)=O [PH02, 2‐{acetyl[(3‐oxo‐1‐benzothien‐2(3H)‐ylidene)methyl]amino}phenyl acetate]
- concentration reactivating viral transcription (LTR‐DsRed, ∆MFI) [2, 4]: above 1.75 μM
- PH02 concentration producing increased effects on HIV‐1 LTR transcription with PEP005 [2, 5]: above 1.75 μM
- concentration reactivating viral transcription (LTR‐DsRed, ∆MFI) [3, 4]: above 1.75 μM
- PH02 concentration producing increased effects on HIV‐1 LTR transcription with PEP005 [3, 5]: above 1.75 μM
